{"source": "patent US20200399308A1", "about": "“COMPOUNDS AND METHODS FOR ELICITING ANTIMICROBIAL ACTIVITY” (Technion Research & Development Foundation Limited, priority 2018, published 2020)", "assay": "Hydrophobicity (H) by HPLC elution from C18 column", "assay_type": "physicochemical", "details": "percentage of acetonitrile required for elution", "note": "Non-standard residues stand in square brackets, D forms with d. Residues, ends and D or L forms follow the SMILES beside them. *: point of attachment. 12Ado = NCCCCCCCCCCCC(=O)O; Decanoyl = CCCCCCCCCC(=O)*; Orn = NCCC[CH](N)C(=O)O"}
{"smiles": "CCCCCCCCCC(=O)NC(CCCN)C(=O)NC(CCCN)C(=O)NCCCCCCCCCCCC(=O)NC(CCCN)C(N)=O", "note": "(stereo not shown) [Compound B] (Decanoyl-[Orn][Orn][12Ado][Orn]-NH2; configuration not given here)", "values": [{"measurement": "H, hydrophobicity", "result": 43, "unit": "%"}]}
